# Experiments:
# [1] = tested on: mTOR kinase activity (pS6/S6 levels); test: Liver protein analysis in mice: pS6/S6; format: in vivo; conditions: Table 30; mouse liver 24 h; oligonucleotide 5 mg/kg (or PBS); Treatment AZD8055 5 mg/kg at 0, 12, 22 h
# Method: The following experiments were performed to determine if the effects of autophagy modulators on antisense activity in vitro can be observed in vivo. […] Following administration of modified oligonucleotide, mice were administered 1% DMSO or 5 mg/kg AZD8055 in 1% DMSO at three time points over 24 hours: at the time of administration of the modified oligonucleotide, and 12 and 22 hours after administration of the modified oligonucleotide. A group of control mice was administered PBS at time 0 and 1% DMSO at 0, 12, and 22 hours. Mice were sacrificed at 24 hours after administration of the modified oligonucleotide and tissues were collected for analysis.
# Protein analysis was carried out on liver tissue using standard procedures. All proteins were normalized to α-tubulin. […] The antibody against LC3B (ab48394) was purchased from Abcam. […] Antibody against P62 (GP62-C) was purchased from Progen.
# A group of control mice was administered PBS at time 0 and 1% DMSO at 0, 12, and 22 hours. Mice were sacrificed at 24 hours after administration of the modified oligonucleotide and tissues were collected for analysis. […]
# Malat-1 = Malat-1 RNA by RT-qPCR in A431 cells; format: cell-based, human; conditions: MOE gapmer
# Method: RT-qPCR analysis was performed to detect RNA levels of Malat-1 using primer probe set RTS2736. Results were normalized to cyclophilin A levels (measured using HTS3936). […] Each table below represents results from an individual assay.
# Atg7 = Atg7 mRNA in mouse liver by RT-qPCR; format: in vivo; conditions: Table 31; mouse liver 24 h; oligonucleotide 5 mg/kg; AZD8055 5 mg/kg at 0, 12, 22 h
# Method: The following experiments were performed to determine if the effects of autophagy modulators on antisense activity in vitro can be observed in vivo. […] Mice were sacrificed at 24 hours after administration of the modified oligonucleotide and tissues were collected for analysis. […] Atg7 mRNA levels are a marker of the induction of autophagy in treated mouse livers. Results are presented as percent change of RNA, relative to PBS control treated with DMSO, normalized to mouse cyclophilin A measured using mouse primer probe set Cyclophilin-A (forward sequence [NT], designated herein as SEQ ID NO: 38; reverse sequence [NT], designated herein as SEQ ID NO: 39; probe sequence [NT], designated herein as SEQ ID NO: 40). […] Following administration of modified oligonucleotide, groups of mice were either allowed free access to chow (control) or fasted overnight (16 hr fast). Mice were sacrificed at 16 hours after administration of the modified oligonucleotide and tissues were collected for analysis. […] Atg7 mRNA levels are a marker of the induction of autophagy in treated mouse livers. Results are presented in Table 33 relative to mice treated with PBS and allowed normal access to chow. […] Mice were sacrificed at 24 hours after administration of the modified oligonucleotide and tissues were collected for analysis. […]
# LC3B = test: Liver protein analysis in mice: LC3B II/I ratio; format: in vivo; conditions: Table 30; mouse liver 24 h; oligonucleotide 5 mg/kg (or PBS); Treatment AZD8055 5 mg/kg at 0, 12, 22 h
# Method: The following experiments were performed to determine if the effects of autophagy modulators on antisense activity in vitro can be observed in vivo. Groups of 3-4 8-week-old male C57bl/6J mice were administered 5 mg/kg control oligonucleotide 141923, or 5 mg/kg antisense oligonucleotide 399462. Following administration of modified oligonucleotide, mice were administered 1% DMSO or 5 mg/kg AZD8055 in 1% DMSO at three time points over 24 hours: at the time of administration of the modified oligonucleotide, and 12 and 22 hours after administration of the modified oligonucleotide. A group of control mice was administered PBS at time 0 and 1% DMSO at 0, 12, and 22 hours. Mice were sacrificed at 24 hours after administration of the modified oligonucleotide and tissues were collected for analysis.
# Autophagy activation was confirmed in livers by determining suppression of mTOR kinase activity (pS6/S6 levels), determining an increased LC3B II/I ratio (a marker for the formation of autophagosomes), and determining p62 degradation (related to the clearance of autophagosomes). Protein analysis was carried out on liver tissue using standard procedures. All proteins were normalized to α-tubulin. Phospho-S6 Ribosomal Protein (Ser240/244) (2215S), and S6 Ribosomal Protein (2217S) antibodies were obtained from Cell Signaling Technology. The antibody against LC3B (ab48394) was purchased from Abcam. […]
compound,measurement,setting,value
COc1ccc(-c2ccc3c(N4CCOC[C@@H]4C)nc(N4CCOC[C@@H]4C)nc3n2)cc1CO [AZD8055],pS6/S6 ratio,[1],0.2
same,effect of autophagy modulator on modified oligonucleotide activity (in words),Malat-1,significantly enhanced modified oligonucleotide activity
same,Atg7 level (% relative to PBS/DMSO-treated mice),Atg7,112%
same,LC3B II/I ratio,LC3B,2.3

# Source: patent US20210130826A1, “METHODS OF MODULATING ANTISENSE ACTIVITY” (IONIS PHARMACEUTICALS, INC., priority 2018, published 2021)
